Drawing on US12440484B2, “1,3,4-oxadiazole homophthalimide derivative compounds as histone deacetylase 6 inhibitor, and the pharmaceutical composition comprising the same” (Chong Kun Dang Pharmaceutical Corp., priority 2019, dated 2025), this text covers IC50 for 25 compounds.

Bounds are passed on as bounds.

As usually defined, the IC50 is the point on the concentration scale where inhibition reaches its midpoint.

Experiment [1] deals with HDAC6 human recombinant (Homo sapiens (Human), UniProt Q9UBN7). Briefly: HDAC enzyme activity inhibition (in vitro), HDAC6 assay. To be noted: samples at 0.1, 1, 10, 100 and 1000 nM; 37° C. 60 minutes; fluorescence Ex 390, Em 460. It is filed as biochemical.
Experiment [2] addresses HDAC1 (Homo sapiens (Human), UniProt Q13547). The experiment can be described thus: HDAC enzyme activity inhibition (in vitro), HDAC1 Fluorimetric Drug Discovery Assay Kit. It is filed as biochemical. To be noted: samples at 100, 1000 and 10000 nM; 37° C. 60 minutes; fluorescence Ex 390, Em 460.

Chain of HDAC6 human recombinant (Q9UBN7 whole entry): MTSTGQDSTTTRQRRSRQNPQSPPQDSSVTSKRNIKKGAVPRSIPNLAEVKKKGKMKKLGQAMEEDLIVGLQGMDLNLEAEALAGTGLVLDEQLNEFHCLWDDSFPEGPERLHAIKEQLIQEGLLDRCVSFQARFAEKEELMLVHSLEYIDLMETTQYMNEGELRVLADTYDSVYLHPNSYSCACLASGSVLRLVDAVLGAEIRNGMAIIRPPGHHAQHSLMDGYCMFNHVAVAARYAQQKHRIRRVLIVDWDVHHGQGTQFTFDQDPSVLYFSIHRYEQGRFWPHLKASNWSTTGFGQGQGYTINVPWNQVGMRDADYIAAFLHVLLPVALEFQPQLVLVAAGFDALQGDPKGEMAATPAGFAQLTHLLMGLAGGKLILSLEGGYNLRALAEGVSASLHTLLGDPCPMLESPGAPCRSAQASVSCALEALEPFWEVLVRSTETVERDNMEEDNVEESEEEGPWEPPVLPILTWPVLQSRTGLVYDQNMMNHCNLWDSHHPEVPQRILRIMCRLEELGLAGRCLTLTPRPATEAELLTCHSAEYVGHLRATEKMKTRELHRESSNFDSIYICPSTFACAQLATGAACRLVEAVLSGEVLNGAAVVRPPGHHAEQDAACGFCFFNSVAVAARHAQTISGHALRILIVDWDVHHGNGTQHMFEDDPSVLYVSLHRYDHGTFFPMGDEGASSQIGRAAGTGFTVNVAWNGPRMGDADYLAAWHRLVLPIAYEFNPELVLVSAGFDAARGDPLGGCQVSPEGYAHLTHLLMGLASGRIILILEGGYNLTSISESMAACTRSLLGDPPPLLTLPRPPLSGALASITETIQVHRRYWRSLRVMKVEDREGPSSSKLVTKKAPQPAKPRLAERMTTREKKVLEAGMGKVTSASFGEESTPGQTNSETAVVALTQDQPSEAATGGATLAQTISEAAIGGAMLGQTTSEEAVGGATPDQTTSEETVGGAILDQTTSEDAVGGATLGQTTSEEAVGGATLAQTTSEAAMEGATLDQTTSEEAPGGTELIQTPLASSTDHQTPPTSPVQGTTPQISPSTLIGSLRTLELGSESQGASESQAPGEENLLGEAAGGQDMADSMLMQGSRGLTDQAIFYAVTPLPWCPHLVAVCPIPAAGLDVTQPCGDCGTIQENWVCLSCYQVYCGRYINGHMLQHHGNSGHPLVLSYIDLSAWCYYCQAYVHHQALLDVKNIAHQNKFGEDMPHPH
Chain of HDAC1 (Q13547 whole entry): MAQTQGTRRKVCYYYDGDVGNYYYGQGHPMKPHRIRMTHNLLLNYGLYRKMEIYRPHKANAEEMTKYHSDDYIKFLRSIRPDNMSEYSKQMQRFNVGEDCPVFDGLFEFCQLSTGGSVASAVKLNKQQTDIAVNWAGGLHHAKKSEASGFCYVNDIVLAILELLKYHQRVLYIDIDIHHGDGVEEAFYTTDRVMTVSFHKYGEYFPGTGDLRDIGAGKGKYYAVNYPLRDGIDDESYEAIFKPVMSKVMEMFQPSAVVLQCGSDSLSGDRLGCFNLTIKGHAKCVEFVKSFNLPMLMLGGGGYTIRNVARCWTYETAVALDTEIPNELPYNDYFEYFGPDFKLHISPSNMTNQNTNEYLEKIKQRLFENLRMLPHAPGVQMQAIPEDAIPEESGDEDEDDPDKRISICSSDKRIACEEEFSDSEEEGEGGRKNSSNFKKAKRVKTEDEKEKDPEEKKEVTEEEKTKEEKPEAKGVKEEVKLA

For the compound `CC(C)N1CCN(c2ccc3c(c2)C(=O)N(Cc2ccc(-c4nnc(C(F)F)o4)cn2)C(=O)C3(C)C)CC1` [Compound 119, 2-((5-(5-(difluoromethyl)-1,3,4-oxadiazole-2-yl)pyridine-2-yl)methyl)-7-(4-isopropylpiperazine-1-yl)-4,4-dimethylisoquinoline-1,3(2H,4H)-dione], the results for the 50% inhibitory concentration (IC50) in experiment [1] and in experiment [2] were 21 nM and more than 10000 nM, respectively.

In the case of `CN1CCN(c2ccc3c(c2)C(C)(C)C(=O)N(Cc2ncc(-c4nnc(C(F)F)o4)cn2)C3=O)CC1` [Compound 153, 2-((5-(5-(difluoromethyl)-1,3,4-oxadiazole-2-yl)pyrimidine-2-yl)methyl)-4,4-dimethyl-6-(4-methylpiperazine-1-yl)isoquinoline-1,3(2H,4H)-dione], the IC50 was 118 nM in experiment [1] and more than 10000 nM in experiment [2].

In the case of `CC1(C)C(=O)N(Cc2ccc(-c3nnc(C(F)F)o3)cn2)C(=O)c2cc(C3=CC[S+]([O-])CC3)ccc21` (centres unmarked) [Compound 123, 2-((5-(5-(difluoromethyl)-1,3,4-oxadiazole-2-yl)pyridine-2-yl)methyl)-4,4-dimethyl-7-(1-oxydo-3,6-dihydro-2H-thiopyran-4-yl)isoquinoline-1,3(2H,4H)-dione], the half-maximal inhibitory concentration (IC50) in experiment [1] is 17 nM; in experiment [2] it was more than 10000 nM.

Consider `CC1(C)C(=O)N(Cc2ccc(-c3nnc(C(F)F)o3)cn2)C(=O)c2cc(C3=CCS(=N)(=O)CC3)ccc21` (centres unmarked) [Compound 126, 2-((5-(5-(difluoromethyl)-1,3,4-oxadiazole-2-yl)pyridine-2-yl)methyl)-7-(1-imino-1-oxydo-1,2,3,6-tetrahydro-1λ^6-thiopyran-4-yl)-4,4-dimethylisoquinoline-1,3(2H,4H)-dione], for which the figures for the concentration for half-maximal inhibition (IC50) in experiment [1] and in experiment [2] were 32 nM and more than 10000 nM, respectively.

`O=C1Cc2ccccc2C(=O)N1Cc1ccc(-c2nnc(C(F)F)o2)cn1` [Compound 65, 2-((5-(5-(difluoromethyl)-1,3,4-oxadiazole-2-yl)pyridine-2-yl)methyl)isoquinoline-1,3(2H,4H)-dione]: the values for the IC50 in experiment [1] and in experiment [2] were 133 nM and more than 10000 nM, respectively.

Turning to `Cn1c(=O)n(Cc2ccc(-c3nnc(C(F)F)o3)cn2)c(=O)c2ccc(-c3ccco3)cc21` [Compound 98, 3-((5-(5-(difluoromethyl)-1,3,4-oxadiazole-2-yl)pyridine-2-yl)methyl)-7-(furan-2-yl)-1-methylquinazoline-2,4(1H,3H)-dione], the IC50 in experiment [1] is 47 nM; in experiment [2], more than 10000 nM.

Consider `O=c1c2ccccc2n(CCN2CCOCC2)c(=O)n1Cc1ccc(-c2nnc(C(F)F)o2)cn1` [Compound 20, 3-((5-(5-(difluoromethyl)-1,3,4-oxadiazole-2-yl)pyridine-2-yl)methyl)-1-(2-morpholinoethyl)quinazoline-2,4(1H,3H)-dione], for which the IC50 was 159 nM in experiment [1] and more than 10000 nM in experiment [2].

For the compound `COc1ccc(Cn2c(=O)n(Cc3ccc(-c4nnc(C(F)F)o4)cn3)c(=O)c3ccccc32)cc1` [Compound 13, 3-((5-(5-(difluoromethyl)-1,3,4-oxadiazole-2-yl)pyridine-2-yl)methyl)-1-(4-methoxybenzyl)quinazoline-2,4(1H,3H)-dione], the IC50 was 225 nM in experiment [1] and more than 10000 nM in experiment [2].

As for `CCCN1CCN(c2ccc3c(c2)C(=O)N(Cc2ccc(-c4nnc(C(F)F)o4)cn2)C(=O)C3(C)C)CC1` [Compound 130, 2-((5-(5-(difluoromethyl)-1,3,4-oxadiazole-2-yl)pyridine-2-yl)methyl)-4,4-dimethyl-7-(4-propylpiperazine-1-yl) isoquinoline-1,3(2H,4H)-dione], the IC50 is 30 nM in experiment [1] and more than 10000 nM in experiment [2].

As for `CC1(C)C(=O)N(Cc2ccc(-c3nnc(C(F)F)o3)cn2)C(=O)c2cc(-c3cccc4[nH]ccc34)ccc21` [Compound 115, 2-((5-(5-(difluoromethyl)-1,3,4-oxadiazole-2-yl)pyridine-2-yl)methyl)-7-(1H-indole-4-yl)-4,4-dimethylisoquinoline-1,3(2H,4H)-dione], the values for the IC50 in experiment [1] and in experiment [2] were 59 nM and more than 10000 nM, respectively.

Consider `CC1(C)C(=O)N(Cc2ccc(-c3nnc(C(F)F)o3)cn2)C(=O)c2c(-c3ccco3)cccc21` [Compound 82, 2-((5-(5-(difluoromethyl)-1,3,4-oxadiazole-2-yl)pyridine-2-yl)methyl)-8-(furan-2-yl)-4,4-dimethylisoquinoline-1,3(2H,4H)-dione], for which the figures for the IC50 in experiment [1] and in experiment [2] were 92 nM and more than 10000 nM, respectively.

In the case of `CC1(C)C(=O)N(Cc2ccc(-c3nnc(C(F)F)o3)cn2)C(=O)c2c(-c3ccoc3)cccc21` [Compound 95, 2-((5-(5-(difluoromethyl)-1,3,4-oxadiazole-2-yl)pyridine-2-yl)methyl)-8-(furan-3-yl)-4,4-dimethylisoquinoline-1,3(2H,4H)-dione], the IC50 is 59 nM in experiment [1] and more than 10000 nM in experiment [2].

As for `CC1(C)C(=O)N(Cc2ccc(-c3nnc(C(F)F)o3)cn2)C(=O)c2ccc(N3CC4(COC4)C3)cc21` [Compound 40, 2-((5-(5-(difluoromethyl)-1,3,4-oxadiazole-2-yl)pyridine-2-yl)methyl)-4,4-dimethyl-6-(2-oxa-6-azaspiro[3.3]heptane-6-yl)isoquinoline-1,3(2H,4H)-dione], the IC50 in experiment [1] was 22 nM; in experiment [2], more than 10000 nM.

In the case of `Cn1c(=O)n(Cc2ccc(-c3nnc(C(F)F)o3)cn2)c(=O)c2ccc(-c3cccnc3)cc21` [Compound 100, 3-((5-(5-(difluoromethyl)-1,3,4-oxadiazole-2-yl)pyridine-2-yl)methyl)-1-methyl-7-(pyridine-3-yl)quinazoline-2,4(1H,3H)-dione], the IC50 in experiment [1] was 37 nM; in experiment [2] it was more than 10000 nM.

As to `CN(C)[C@H]1CCN(c2ccc3c(c2)C(C)(C)C(=O)N(Cc2ccc(-c4nnc(C(F)F)o4)cn2)C3=O)C1` [Compound 31, (S)-2-((5-(5-(difluoromethyl)-1,3,4-oxadiazole-2-yl)pyridine-2-yl)methyl)-6-(3-(dimethylamino)pyrrolidine-1-yl)-4,4-dimethylisoquinoline-1,3(2H,4H)-dione], the IC50 in experiment [1] is 29 nM; in experiment [2] it was more than 10000 nM.

For `CN1CCC(Cn2c(=O)n(Cc3ccc(-c4nnc(C(F)F)o4)cn3)c(=O)c3ccccc32)CC1` [Compound 15, 3-((5-(5-(difluoromethyl)-1,3,4-oxadiazole-2-yl)pyridine-2-yl)methyl)-1-((1-methylpiperidine-4-yl)methyl)quinazoline-2,4(1H,3H)-dione], the IC50 in experiment [1] was 196 nM; in experiment [2], more than 10000 nM.

Regarding `CC1(C)C(=O)N(Cc2ccc(-c3nnc(C(F)F)o3)cn2)C(=O)c2ccccc21` [Compound 8, 2-((5-(5-(difluoromethyl)-1,3,4-oxadiazole-2-yl)pyridine-2-yl)methyl)-4,4-dimethylisoquinoline-1,3(2H,4H)-dione], the IC50 in experiment [1] was 30 nM; in experiment [2] it was more than 10000 nM.

Take `CC1(C)C(=O)N(Cc2ccc(-c3nnc(C(F)F)o3)cn2)C(=O)c2cc(N3CCN(CC(F)(F)F)CC3)ccc21` [Compound 133, 2-((5-(5-(difluoromethyl)-1,3,4-oxadiazole-2-yl)pyridine-2-yl)methyl)-4,4-dimethyl-7-(4-(2,2,2-trifluoroethyl)piperazine-1-yl)isoquinoline-1,3(2H,4H)-dione]: the IC50 is 76 nM in experiment [1] and more than 10000 nM in experiment [2].

Take `O=C1c2ccc(Br)cc2C2(CCCCC2)C(=O)N1Cc1ccc(-c2nnc(C(F)F)o2)cn1` [Compound 107, 6′-bromo-2′-((5-(5-(difluoromethyl)-1,3,4-oxadiazole-2-yl)pyridine-2-yl)methyl)-1′H-spiro[cyclohexane-1,4′-isoquinoline]-1′,3′(2′H)-dione]: the IC50 in experiment [1] is 148 nM; in experiment [2], more than 10000 nM.

On to `CC1(C)C(=O)N(Cc2ccc(-c3nnc(C(F)F)o3)cn2)C(=O)c2cc(-c3ccncc3)ccc21` [Compound 110, 2-((5-(5-(difluoromethyl)-1,3,4-oxadiazole-2-yl)pyridine-2-yl)methyl)-4,4-dimethyl-7-(pyridine-4-yl)isoquinoline-1,3(2H,4H)-dione], for which the half-inhibitory concentration (IC50) in experiment [1] is 15 nM; in experiment [2], more than 10000 nM.

Consider `CN1CCC(c2ccc3c(c2)C(C)(C)C(=O)N(Cc2ccc(-c4nnc(C(F)F)o4)cn2)C3=O)CC1` [Compound 44, 2-((5-(5-(difluoromethyl)-1,3,4-oxadiazole-2-yl)pyridine-2-yl)methyl)-4,4-dimethyl-6-(1-methylpiperidine-4-yl)isoquinoline-1,3(2H,4H)-dione], for which the results for the IC50 in experiment [1] and in experiment [2] were 19 nM and more than 10000 nM, respectively.

For the compound `CC1(C)C(=O)N(Cc2ccc(-c3nnc(C(F)F)o3)cc2)C(=O)c2ccccc21` [Compound 6, 2-(4-(5-(difluoromethyl)-1,3,4-oxadiazole-2-yl)benzyl)-4,4-dimethylisoquinoline-1,3(2H,4H)-dione], the IC50 in experiment [1] was 647 nM; in experiment [2], more than 10000 nM.

On to `COc1ccc(-c2cccc3c2C(=O)N(Cc2ccc(-c4nnc(C(F)F)o4)cn2)C(=O)C3(C)C)cn1` [Compound 94, 2-((5-(5-(difluoromethyl)-1,3,4-oxadiazole-2-yl)pyridine-2-yl)methyl)-8-(6-methoxypyridine-3-yl)-4,4-dimethylisoquinoline-1,3(2H,4H)-dione], for which the concentration for half-maximal inhibition (IC50) in experiment [1] is 116 nM; in experiment [2], more than 10000 nM.

For the compound `Cn1c(=O)n(Cc2ccc(-c3nnc(C(F)F)o3)cn2)c(=O)c2cc(Br)ccc21` [Compound 86, 6-bromo-3-((5-(5-(difluoromethyl)-1,3,4-oxadiazole-2-yl)pyridine-2-yl)methyl)-1-methylquinazoline-2,4(1H,3H)-dione], the values for the IC50 in experiment [1] and in experiment [2] were 40 nM and more than 10000 nM, respectively.

Consider `Cn1c(=O)n(Cc2ccc(-c3nnc(C(F)F)o3)cn2)c(=O)c2cc(-c3ccncc3)ccc21` [Compound 92, 3-((5-(5-(difluoromethyl)-1,3,4-oxadiazole-2-yl)pyridine-2-yl)methyl)-1-methyl-6-(pyridine-4-yl)quinazoline-2,4(1H,3H)-dione], for which the IC50 in experiment [1] is 35 nM; in experiment [2], more than 10000 nM.
